Measured values from PubChem BioAssay AID330 (DTP/NCI, 2004).
“And” between values parts separate entries of the source, which are not always exact repeats. Identical values can stand only once. Toxic doses and inconclusive results are not listed.

Tested on: P388 leukemia ip, CD2F1 mice, survival T/C
Test: NCI In Vivo Anticancer Drug Screen. Data for tumor model P388 Leukemia (intraperitoneal) in CD2F1 (CDF1) mice
Details: endpoint: median survival time, higher = longer survival
Outline: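 Mice carrying the transplanted tumor received test compound or vehicle. Survival was recorded in each group, and the value is the treated-group measurement divided by that of the vehicle-treated control group.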

[1] = dose: 50.0 mg/kg/injection, schedule: Q01DX005 (ip), vehicle: Klucel (hydroxypropylcellulose) (HPC)
[2] = dose: 100.0 mg/kg/injection, schedule: Q01DX005 (ip), vehicle: Klucel (hydroxypropylcellulose) (HPC)
[3] = dose: 12.5 mg/kg/injection, schedule: Q01DX009 (ip), vehicle: saline with Tween-80
[4] = dose: 25.0 mg/kg/injection, schedule: Q01DX009 (ip), vehicle: saline with Tween-80
[5] = dose: 50.0 mg/kg/injection, schedule: Q01DX009 (ip), vehicle: saline with Tween-80
[6] = dose: 100.0 mg/kg/injection, schedule: Q01DX009 (ip), vehicle: saline with Tween-80
[7] = dose: 200.0 mg/kg/injection, schedule: Q01DX009 (ip), vehicle: saline with Tween-80
[8] = dose: 50.0 mg/kg/injection, schedule: Q01DX005 (ip), vehicle: saline with Tween-80
[9] = dose: 100.0 mg/kg/injection, schedule: Q01DX005 (ip), vehicle: saline with Tween-80
[10] = dose: 200.0 mg/kg/injection, schedule: Q01DX005 (ip), vehicle: saline with Tween-80
[11] = dose: 100.0 mg/kg/injection, schedule: Q01DX009 (ip), vehicle: Klucel (hydroxypropylcellulose) (HPC)
[12] = dose: 200.0 mg/kg/injection, schedule: Q01DX009 (ip), vehicle: saline

## Nc1nc(Br)nc2c1ncn2C1CC(O)C(CO)O1 (centres undefined)
dose: 1.5 mg/kg/injection, schedule: Q01DX005 (ip), vehicle: suspension in saline
  T/C: 118 % of control
dose: 3.0 mg/kg/injection, schedule: Q01DX005 (ip), vehicle: suspension in saline
  T/C: 121 % of control
dose: 15.0 mg/kg/injection, schedule: Q01DX005 (ip), vehicle: suspension in saline
  T/C: 108 % of control
dose: 15.0 mg/kg/injection, schedule: Q03HX009 (ip), vehicle: saline
  T/C: 153 % of control and 155 % of control
dose: 30.0 mg/kg/injection, schedule: Q03HX009 (ip), vehicle: saline with Tween-80
  T/C: 164 % of control
dose: 30.0 mg/kg/injection, schedule: Q03HX009 (ip), vehicle: saline
  T/C: 167 % of control and 181 % of control
dose: 60.0 mg/kg/injection, schedule: Q01DX005 (ip), vehicle: suspension in saline
  T/C: 117 % of control
dose: 60.0 mg/kg/injection, schedule: Q03HX009 (ip), vehicle: saline with Tween-80
  T/C: 155 % of control
dose: 60.0 mg/kg/injection, schedule: Q03HX009 (ip), vehicle: saline
  T/C: 165 % of control and 172 % of control
dose: 120.0 mg/kg/injection, schedule: Q01DX005 (ip), vehicle: suspension in saline
  T/C: 122 % of control
dose: 120.0 mg/kg/injection, schedule: Q03HX009 (ip), vehicle: saline with Tween-80
  T/C: 157 % of control
dose: 120.0 mg/kg/injection, schedule: Q03HX009 (ip), vehicle: saline
  T/C: 172 % of control

## Cc1cc(=O)oc2c(C)c3oc4ccncc4c3cc12
[1]
  T/C: 104 % of control
[2]
  T/C: 110 % of control
dose: 200.0 mg/kg/injection, schedule: Q01DX005 (ip), vehicle: Klucel (hydroxypropylcellulose) (HPC)
  T/C: 107 % of control

## C=CC[N+](CC=C)(CC=C)CC[N+](CC=C)(CC=C)CC=C
[3]
  T/C: 97 % of control
[4]
  T/C: 101 % of control
[5]
  T/C: 105 % of control

## CCC/C=C1\OC(=O)c2ccccc21
[3]
  T/C: 104 % of control
[4]
  T/C: 100 % of control
[5]
  T/C: 104 % of control
[6]
  T/C: 100 % of control
[7]
  T/C: 114 % of control

## O=C(NN1C(=O)CS(=O)(=O)C1c1ccc(F)cc1)c1ccncc1 (centres undefined)
[8]
  T/C: 98 % of control
[9]
  T/C: 97 % of control
[10]
  T/C: 88 % of control

## O=C(Cc1ccc(OCc2ccccc2)cc1)NCc1ccc2c(c1)OCO2
dose: 15.0 mg/kg/injection, schedule: Q01DX005 (ip), vehicle: saline with Tween-80
  T/C: 96 % of control
dose: 30.0 mg/kg/injection, schedule: Q01DX005 (ip), vehicle: saline with Tween-80
  T/C: 91 % of control
dose: 60.0 mg/kg/injection, schedule: Q01DX005 (ip), vehicle: saline with Tween-80
  T/C: 89 % of control

## CC(C)(C)CC(C)(C)c1ccc(OCc2cccc(Cl)c2)cc1
[5]
  T/C: 97 % of control
[6]
  T/C: 96 % of control
[7]
  T/C: 95 % of control

## CN(N=O)C(=O)NCCCCCNC(=O)N(C)N=O
dose: 100.0 mg/kg/injection, schedule: Q04DX003 (ip), vehicle: saline with Tween-80
  T/C: 100 % of control
dose: 200.0 mg/kg/injection, schedule: Q04DX003 (ip), vehicle: saline with Tween-80
  T/C: 104 % of control
dose: 400.0 mg/kg/injection, schedule: Q01DX009 (ip), vehicle: saline with Tween-80
  T/C: 150 % of control and 163 % of control
dose: 400.0 mg/kg/injection, schedule: Q04DX003 (ip), vehicle: saline with Tween-80
  T/C: 104 % of control
dose: 600.0 mg/kg/injection, schedule: Q01DX009 (ip), vehicle: saline with Tween-80
  T/C: 163 % of control

## O=S(=O)(Cc1cccs1)c1ncc(Br)cn1
dose: 12.5 mg/kg/injection, schedule: Q01DX005 (ip), vehicle: Klucel (hydroxypropylcellulose) (HPC)
  T/C: 106 % of control
dose: 25.0 mg/kg/injection, schedule: Q01DX005 (ip), vehicle: Klucel (hydroxypropylcellulose) (HPC)
  T/C: 106 % of control
[1]
  T/C: 111 % of control and 113 % of control
[2]
  T/C: 117 % of control

## O=C1CC2(CCCC2)C(=O)N1c1cccc([N+](=O)[O-])c1
dose: 50.0 mg/kg/injection, schedule: Q01DX009 (ip), vehicle: Klucel (hydroxypropylcellulose) (HPC)
  T/C: 92 % of control
[11]
  T/C: 106 % of control
dose: 200.0 mg/kg/injection, schedule: Q01DX009 (ip), vehicle: Klucel (hydroxypropylcellulose) (HPC)
  T/C: 101 % of control

## CN(C)c1ccc2c(c1)C(=O)N(OS(=O)(=O)c1ccccc1)C2=O
[8]
  T/C: 100 % of control
[9]
  T/C: 103 % of control
[10]
  T/C: 96 % of control

## CCOC(=O)NCCCCC(N)C(=O)O (centres undefined)
dose: 50.0 mg/kg/injection, schedule: Q01DX009 (ip), vehicle: saline
  T/C: 97 % of control
dose: 100.0 mg/kg/injection, schedule: Q01DX009 (ip), vehicle: saline
  T/C: 102 % of control
[12]
  T/C: 102 % of control

## O=C(N/N=C/c1ccc(F)cc1)c1ccncc1
[5]
  T/C: 91 % of control
[6]
  T/C: 92 % of control
[7]
  T/C: 90 % of control

## COc1cc([N+](=O)[O-])c(S(=O)(=O)O)cc1N=N/C(=N/Nc1cc(S(=O)(=O)O)c([N+](=O)[O-])cc1OC)C(=O)Nc1ccccc1
[1]
  T/C: 95 % of control
[2]
  T/C: 93 % of control

## COc1ccc(/C=C(/C)[N+](=O)[O-])cc1OC
dose: 22.0 mg/kg/injection, schedule: Q01DX009 (ip), vehicle: saline with Tween-80
  T/C: 109 % of control
dose: 33.0 mg/kg/injection, schedule: Q01DX009 (ip), vehicle: saline with Tween-80
  T/C: 109 % of control
[5]
  T/C: 109 % of control
dose: 75.0 mg/kg/injection, schedule: Q01DX009 (ip), vehicle: saline with Tween-80
  T/C: 118 % of control
[12]
  T/C: 100 % of control

## CC1CC(c2ccc(Cl)cc2)C(c2ccc(Cl)cc2)C(=O)O1 (centres undefined)
[11]
  T/C: 90 % of control

## CN=C(N)NCCCCCCCCNC(N)=NC
dose: 3.13 mg/kg/injection, schedule: Q01DX009 (ip), vehicle: saline with Tween-80
  T/C: 112 % of control
dose: 3.13 mg/kg/injection, schedule: Q01DX009 (ip), vehicle: saline
  T/C: 124 % of control
dose: 6.25 mg/kg/injection, schedule: Q01DX009 (ip), vehicle: saline with Tween-80
  T/C: 109 % of control
dose: 6.25 mg/kg/injection, schedule: Q01DX009 (ip), vehicle: saline
  T/C: 109 % of control
[3]
  T/C: 112 % of control
dose: 25.0 mg/kg/injection, schedule: Q01DX009 (ip), vehicle: saline
  T/C: 87 % of control

## COc1ccc2c(NCCCCCCNc3c4ccccc4nc4cc(OC)ccc34)c3ccccc3nc2c1
dose: 0.62 mg/kg/injection, schedule: Q## X009 (ip), vehicle: lactic acid
  T/C: 151 % of control
dose: 0.63 mg/kg/injection, schedule: Q01DX009 (ip), vehicle: other
  T/C: 119 % of control
dose: 1.25 mg/kg/injection, schedule: Q## X009 (ip), vehicle: lactic acid
  T/C: 170 % of control
dose: 2.5 mg/kg/injection, schedule: Q## X009 (ip), vehicle: lactic acid
  T/C: 170 % of control
dose: 5.0 mg/kg/injection, schedule: Q01DX009 (ip), vehicle: other
  T/C: 154 % of control
dose: 5.0 mg/kg/injection, schedule: Q## X009 (ip), vehicle: lactic acid
  T/C: 164 % of control
dose: 10.0 mg/kg/injection, schedule: Q01DX009 (ip), vehicle: other
  T/C: 110 % of control
dose: 10.0 mg/kg/injection, schedule: Q## X009 (ip), vehicle: lactic acid
  T/C: 86 % of control

## CN(C)CCCNc1c2ccccc2nc2cc([N+](=O)[O-])ccc12
dose: 0.1 mg/kg/injection, schedule: Q01DX009 (ip), vehicle: water
  T/C: 103 % of control
dose: 0.2 mg/kg/injection, schedule: Q01DX009 (ip), vehicle: water
  T/C: 104 % of control
dose: 0.39 mg/kg/injection, schedule: Q01DX009 (ip), vehicle: water
  T/C: 100 % of control
dose: 0.78 mg/kg/injection, schedule: Q01DX009 (ip), vehicle: water
  T/C: 100 % of control and 117 % of control
dose: 1.56 mg/kg/injection, schedule: Q01DX009 (ip), vehicle: water
  T/C: 102 % of control and 108 % of control
dose: 3.13 mg/kg/injection, schedule: Q01DX009 (ip), vehicle: water
  T/C: 123 % of control
dose: 6.25 mg/kg/injection, schedule: Q01DX009 (ip), vehicle: water
  T/C: 95 % of control

## CCNCc1c(C)nc2ccc(N(C)C)cc2c1Cl
[3]
  T/C: 91 % of control
[4]
  T/C: 104 % of control
[5]
  T/C: 88 % of control

## COc1nc(OC)c2cnn(-c3ccc(Cl)cc3)c2n1
dose: 30.0 mg/kg/injection, schedule: Q01DX005 (ip), vehicle: Klucel (hydroxypropylcellulose) (HPC)
  T/C: 89 % of control
dose: 60.0 mg/kg/injection, schedule: Q01DX005 (ip), vehicle: Klucel (hydroxypropylcellulose) (HPC)
  T/C: 89 % of control
dose: 120.0 mg/kg/injection, schedule: Q01DX005 (ip), vehicle: Klucel (hydroxypropylcellulose) (HPC)
  T/C: 92 % of control
dose: 240.0 mg/kg/injection, schedule: Q01DX005 (ip), vehicle: Klucel (hydroxypropylcellulose) (HPC)
  T/C: 89 % of control
